According to publication PMC5622025, “Synthesis and biological evaluation of tricyclic matrinic derivatives as a class of novel anti-HCV agents” (Chemistry Central Journal, 2017):
Like-named read-outs stand apart in the source and are kept apart here.

What was measured:
[1] = PK study after single oral dosing; assay type: in vivo, SD rats; conditions: rats, single oral dosing of 25 mg kg^−1, n = 3
[2] = test system: HCV; experiment: Anti-HCV effect in vitro, intracellular HCV RNA by real-time RT-PCR in infected Huh7.5 cells; assay type: cell-based, hepatitis C virus; conditions: for EC50: HCV-infected Huh7.5 cells, 72 h, real-time RT-PCR, read-out: EC50 (concentration required to inhibit HCV growth by 50%)
Description: (§1) All the target compounds were evaluated for their anti-HCV activities (EC50) and cytotoxicities (CC50) in human Huh7.5 cells using specific real-time RT-PCR assay, as described earlier. As an important indicator, the selectivity index (SI) was calculated as a ratio of CC50 to EC50. Anti-HCV ability of a given compound was estimated by combining its EC50 with SI values.
(§2) Human liver cell line Huh7.5 cells (kindly provided by Vertex Pharmaceuticals, Inc., Boston, MA) were cultured in Dulbecco’s modified eagle medium (DMEM) supplemented with 10% inactivated fetal bovine serum and 1% penicillin–streptomycin (invitrogen). Cells were digested with 0.05% trypsin-ethylene diamine tetraacetic acid (EDTA) and split twice a week.
Huh7.5 cells were seeded into 96-well or 6-well plates (Costar) at a density of 3 × 10^4 cells cm^−2. After 24 h incubation, the cells were infected with HCV viral stock (45 IU cell^−1) and simultaneously treated with the test compounds at various concentrations or solvent as control. The culture medium was removed after 72 h inoculation, the intracellular total RNA (in 96-well plates) was extracted with RNeasy Mini Kit (Qiagen), and total intracellular proteins (in 6-well plates) were extracted with Cyto-Buster Protein Extraction Reagent added with 1 mM protease inhibitor cocktail. The intracellular HCV RNA was quantified with a real time one-step reverse-transcription polymerase chain reaction (RT-PCR).

[3] = test system: Kunming mice; experiment: Acute toxicity test, single oral dosing, 7 days monitoring; assay type: in vivo
Description: Each compound was given orally in a single-dosing experiment at 250, 500, 750 or 1000 mg kg^−1, respectively. The mice were closely monitored for 7 days.
Female Kunming mice with weight of 20.0 ± 1.0 g were fed with regular rodent chow and housed in an air conditioned room. The mice were randomly divided into different groups with six mice each. Each compound was given orally in a single-dosing experiment at 0, 250, 500, 750 or 1000 mg kg^−1 (ddH2O as control), respectively. The mice were closely monitored for 7 days. Body weight as well as survival was monitored.

[4] = test system: Huh7.5 cells; experiment: Cytotoxicity assay (MTT) in Huh7.5 cells; assay type: cell-based, human; conditions: Huh7.5 cells, 72 h, MTT; read-out: CC50 (cytotoxic concentration required to inhibit Huh7.5 cell growth by 50%)
Description: as §1, §2
(§3) Huh7.5 cells were seeded into 96-well plates (Costar) at a density of 3 × 10^4 cells cm^−2. After 24 h incubation, fresh culture medium containing test compounds at various concentrations were added. 72 h later, cytotoxicity was evaluated with 3-(4,5-dimethylthiazol-2-yl)-2,5-diphenyltetrazolium bromide (MTT).

[5] = test system: HCV; parameters: method as in PMID 23516533, PMID 20593456; conditions: earlier studies; cited from earlier work
[6] = Cytotoxicity assay (MTT) in Huh7.5 cells; assay type: cell-based, human; conditions: human; Huh7.5 cells, 72 h, MTT; read-out: CC50 (cytotoxic concentration required to inhibit Huh7.5 cell growth by 50%)
Description: as §1, §2, §3

Compound | AUC 0–t [1] [µM·h] | AUC 0–∞ [1] [µM·h] | Cmax [1] [nM] | MRT [1] [h] | Tmax [1] [h] | t1/2 [1] [h] | EC50 [2] [µM] | LD50 [3] [mg/kg] | CC50 [4] [µM] | SI (anti-HCV) [5] | EC50 ([2]; Hepatitis C virus) [µM] | SI (ratio of CC50 to EC50) ([2]; Huh7.5 cells) | CC50 at 72 h [6] [µM]
COc1ccc(CN2CC3CCCN4CCCC(C2CCCCO)C34)cc1.Cl.Cl (stereo not shown) [7a, 12N-(4-Methoxybenzyl)matrinol dihydrochloride] | 1.55 | 1.58 | 620 | 3.55 | 0.42 | 4.69 | 2.81 ± 0.82 | 708 | 383 ± 30.2 |  |  |  | 
Cc1ccc(CN2C[C@@H]3CCCN4CCC[C@@H]([C@H]34)[C@H]2CCCCO)cc1.Cl.Cl [7b, 12N-(4-Methylbenzyl)matrinol dihydrochloride] | 2.32 | 2.36 | 790 | 4.47 | 1.00 | 3.39 | < 2.06 | 392 | 252 ± 3.04 |  |  |  | 
COc1ccc(CN2C[C@@H]3CCCN4CCC[C@@H]([C@H]34)[C@H]2CCCC(=O)O)cc1 [compound 1, 12N-4-methoxylbenzyl matrinic acid] |  |  |  |  |  |  |  |  |  | over 22 | 43.8 ± 3.81 | > 22.8 | > 1000
